Laboratory results reported in PubChem BioAssay (NCI).
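Five compound concentrations were applied to cells in 96-well plates for 48 hours; endpoints were derived by simple linear interpolation of the resulting dose-response curve. GI50: concentration for 50% inhibition of growth. The concentration for full growth arrest is given as TGI.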

Legend:
Test in all cases: NCI anticancer screen, dose series, 48 h
MALME-3M melanoma = system: MALME-3M melanoma
HCT-15 colon = system: HCT-15 colon
BT-549 breast = system: BT-549 breast
OVCAR-8 ovarian = system: OVCAR-8 ovarian
HOP-62 NSCLC = system: HOP-62 NSCLC
K-562 leukemia = system: K-562 leukemia
EKVX NSCLC = system: EKVX NSCLC
MOLT-4 leukemia = system: MOLT-4 leukemia
HOP-92 NSCLC = system: HOP-92 NSCLC
NCI/ADR-RES ovarian = system: NCI/ADR-RES ovarian
SK-OV-3 ovarian = system: SK-OV-3 ovarian
NCI-H522 lung = system: NCI-H522 lung
U251 CNS = system: U251 CNS
SNB-75 CNS = system: SNB-75 CNS
RXF 393 renal = system: RXF 393 renal
TK-10 renal = system: TK-10 renal
OVCAR-3 ovarian = system: OVCAR-3 ovarian
LOX IMVI melanoma = system: LOX IMVI melanoma
MDA-MB-231 breast = system: MDA-MB-231 breast
M14 melanoma = system: M14 melanoma
A549 NSCLC = system: A549 NSCLC
CCRF-CEM leukemia = system: CCRF-CEM leukemia
HL-60(TB) leukemia = system: HL-60(TB) leukemia
SR leukemia = system: SR leukemia
IGROV1 ovarian = system: IGROV1 ovarian
SK-MEL-2 melanoma = system: SK-MEL-2 melanoma
OVCAR-5 ovarian = system: OVCAR-5 ovarian
DU-145 prostate = system: DU-145 prostate
HCC-2998 colon = system: HCC-2998 colon
SN12C renal = system: SN12C renal
NCI-H460 lung = system: NCI-H460 lung
KM12 colon = system: KM12 colon
SF-539 CNS = system: SF-539 CNS
HS 578T breast = system: HS 578T breast
SF-295 CNS = system: SF-295 CNS
SF-268 CNS = system: SF-268 CNS
HT29 colon = system: HT29 colon
UACC-62 melanoma = system: UACC-62 melanoma
UO-31 renal = system: UO-31 renal
PC-3 prostate = system: PC-3 prostate
SK-MEL-5 melanoma = system: SK-MEL-5 melanoma
SW-620 colon = system: SW-620 colon
A498 renal = system: A498 renal
CAKI-1 renal = system: CAKI-1 renal
786-0 renal = system: 786-0 renal
COLO 205 colon = system: COLO 205 colon
MCF7 breast = system: MCF7 breast
HCT-116 colon = system: HCT-116 colon
ACHN renal = system: ACHN renal
UACC-257 melanoma = system: UACC-257 melanoma
NCI-H23 lung = system: NCI-H23 lung
SNB-19 CNS = system: SNB-19 CNS
RPMI-8226 leukemia = system: RPMI-8226 leukemia
SK-MEL-28 melanoma = system: SK-MEL-28 melanoma
OVCAR-4 ovarian = system: OVCAR-4 ovarian
NCI-H226 lung = system: NCI-H226 lung

SMILES: COc1ccc(/C=C\c2cc(OC)c(OC)c(OC)c2)cc1OC(=O)c1cccc(Cn2cc(CCOC(=O)[C@H](N)Cc3cn(C)c4ccccc34)nn2)c1
- GI50 (MALME-3M melanoma): 0.081 µM
- TGI (MALME-3M melanoma): 25.6 µM
- GI50 (HCT-15 colon): < 0.01 µM
- TGI (HCT-15 colon): > 44 µM
- GI50 (BT-549 breast): < 0.01 µM
- TGI (BT-549 breast): 13.3 µM
- GI50 (OVCAR-8 ovarian): < 0.01 µM
- TGI (OVCAR-8 ovarian): > 100 µM
- GI50 (HOP-62 NSCLC): < 0.01 µM
- TGI (HOP-62 NSCLC): > 100 µM
- GI50 (K-562 leukemia): < 0.01 µM
- TGI (K-562 leukemia): > 22.4 µM
- GI50 (EKVX NSCLC): 0.0538 µM
- TGI (EKVX NSCLC): > 100 µM
- GI50 (MOLT-4 leukemia): < 0.01 µM
- TGI (MOLT-4 leukemia): 18.8 µM
- GI50 (HOP-92 NSCLC): 0.206 µM
- TGI (HOP-92 NSCLC): > 88.2 µM
- GI50 (NCI/ADR-RES ovarian): < 0.01 µM
- TGI (NCI/ADR-RES ovarian): 23.5 µM
- GI50 (SK-OV-3 ovarian): 0.455 µM
- TGI (SK-OV-3 ovarian): > 100 µM
- GI50 (NCI-H522 lung): < 0.01 µM
- TGI (NCI-H522 lung): 29.4 µM
- GI50 (U251 CNS): < 0.01 µM
- TGI (U251 CNS): > 100 µM
- GI50 (SNB-75 CNS): < 0.01 µM
- TGI (SNB-75 CNS): 0.0293 µM
- GI50 (RXF 393 renal): < 0.01 µM
- TGI (RXF 393 renal): 12.9 µM
- GI50 (TK-10 renal): 25 µM
- TGI (TK-10 renal): > 100 µM
- GI50 (OVCAR-3 ovarian): < 0.01 µM
- TGI (OVCAR-3 ovarian): 18.9 µM
- GI50 (LOX IMVI melanoma): < 0.01 µM
- TGI (LOX IMVI melanoma): 14.2 µM
- GI50 (MDA-MB-231 breast): < 0.01 µM
- TGI (MDA-MB-231 breast): > 51.9 µM
- GI50 (M14 melanoma): < 0.01 µM
- TGI (M14 melanoma): 16.9 µM
- GI50 (A549 NSCLC): 0.0322 µM
- TGI (A549 NSCLC): > 100 µM
- GI50 (CCRF-CEM leukemia): < 0.01 µM
- TGI (CCRF-CEM leukemia): > 100 µM
- GI50 (HL-60(TB) leukemia): < 0.01 µM
- GI50 (SR leukemia): < 0.01 µM
- TGI (SR leukemia): 2.66 µM
- GI50 (IGROV1 ovarian): < 0.0136 µM
- TGI (IGROV1 ovarian): > 100 µM
- GI50 (SK-MEL-2 melanoma): 15.4 µM
- TGI (SK-MEL-2 melanoma): > 83.5 µM
- GI50 (OVCAR-5 ovarian): 0.0886 µM
- TGI (OVCAR-5 ovarian): > 100 µM
- GI50 (DU-145 prostate): < 0.01 µM
- TGI (DU-145 prostate): > 100 µM
- GI50 (HCC-2998 colon): 0.0198 µM
- TGI (HCC-2998 colon): 1.7 µM
- GI50 (SN12C renal): < 0.01 µM
- TGI (SN12C renal): > 100 µM
- GI50 (NCI-H460 lung): < 0.01 µM
- TGI (NCI-H460 lung): > 42.8 µM
- GI50 (KM12 colon): < 0.01 µM
- TGI (KM12 colon): 16.5 µM
- GI50 (SF-539 CNS): < 0.01 µM
- TGI (SF-539 CNS): 0.272 µM
- GI50 (HS 578T breast): < 0.01 µM
- TGI (HS 578T breast): > 100 µM
- GI50 (SF-295 CNS): 0.0295 µM
- TGI (SF-295 CNS): 12.5 µM
- GI50 (SF-268 CNS): 0.0296 µM
- TGI (SF-268 CNS): > 100 µM
- GI50 (HT29 colon): 0.379 µM
- TGI (HT29 colon): > 20.9 µM
- GI50 (UACC-62 melanoma): < 0.01 µM
- TGI (UACC-62 melanoma): 24.2 µM
- GI50 (UO-31 renal): 0.192 µM
- TGI (UO-31 renal): > 45.1 µM
- GI50 (PC-3 prostate): < 0.01 µM
- TGI (PC-3 prostate): > 100 µM
- GI50 (SK-MEL-5 melanoma): < 0.01 µM
- TGI (SK-MEL-5 melanoma): 0.0254 µM
- GI50 (SW-620 colon): < 0.01 µM
- TGI (SW-620 colon): > 100 µM
- GI50 (A498 renal): < 0.01 µM
- GI50 (CAKI-1 renal): < 0.0139 µM
- TGI (CAKI-1 renal): > 61.3 µM
- GI50 (786-0 renal): 0.111 µM
- TGI (786-0 renal): > 100 µM
- GI50 (COLO 205 colon): 0.35 µM
- TGI (COLO 205 colon): 1.55 µM
- GI50 (MCF7 breast): 0.0123 µM
- TGI (MCF7 breast): 14 µM
- GI50 (HCT-116 colon): < 0.01 µM
- TGI (HCT-116 colon): 38.7 µM
- GI50 (ACHN renal): < 0.01 µM
- TGI (ACHN renal): > 60.7 µM
- GI50 (UACC-257 melanoma): 11.4 µM
- TGI (UACC-257 melanoma): 47.6 µM
- GI50 (NCI-H23 lung): < 0.01 µM
- TGI (NCI-H23 lung): 63.7 µM
- GI50 (SNB-19 CNS): < 0.01 µM
- TGI (SNB-19 CNS): > 100 µM
- GI50 (RPMI-8226 leukemia): < 0.01 µM
- TGI (RPMI-8226 leukemia): 2.23 µM
- GI50 (SK-MEL-28 melanoma): 2.69 µM
- TGI (SK-MEL-28 melanoma): 36.1 µM
- GI50 (OVCAR-4 ovarian): 0.208 µM
- TGI (OVCAR-4 ovarian): > 85.4 µM
- GI50 (NCI-H226 lung): < 0.0169 µM
- TGI (NCI-H226 lung): 38.9 µM
